Literature values, collected in US20100049492A1, “METHOD AND APPARATUS FOR MODELING SKIN SENSITIZATION” (Entelos, Inc., priority 2006, published 2010).

Tested on: lymph node (LN) proliferation
Details: categories based on data available in the public domain

Structure (SMILES)	chemical category (skin sensitizer strength)
O=C/C=C/c1ccccc1 [cinnamic aldehyde]	moderate sensitizers
Oc1ccc(O)cc1 [hydroquinone]	strong sensitizers
CC=Cc1ccc(O)c(OC)c1 [isoeugenol]	moderate sensitizers
CCCCCCCC/C=C\CCCCCCCC(=O)OCCOCC(OCCO)C1OCC(OCCO)C1OCCO (stereo not drawn) [Tween 80]	non-sensitizers
Nc1ccc(C(=O)O)cc1 [PABA]	non-sensitizers
CCO/C=C1\N=C(c2ccccc2)OC1=O [oxazalone]	strong sensitizers
